Tests used:
Test in all cases: relative viability (nuclei count vs DMSO), 5 days (fraction); higher = more cells survive
NCI-H1666 = test system: NCI-H1666
Procedure, shortened: (§1)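 Five library-drug doses in √10 steps were combined with a fixed anchor-drug dose, or a single drug was given alone, by pin tool to lung cancer cell lines in 1536-well plates the day after seeding. Nuclei were stained and counted after 5 days. Relative viability is the nuclei count in treated wells over that in vehicle wells, taken as the median of duplicate plates.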

NCI-H23 = test system: NCI-H23
Procedure, shortened: as §1

NCI-H1792 = test system: NCI-H1792
Procedure, shortened: as §1

NCI-H838 = test system: NCI-H838
Procedure, shortened: as §1

NCI-H441 = test system: NCI-H441
Procedure, shortened: as §1

HCC-44 = test system: HCC-44
Procedure, shortened: as §1

NCI-H1975 = test system: NCI-H1975
Procedure, shortened: as §1

HCC-827 = test system: HCC-827
Procedure, shortened: as §1

NCI-H358 = test system: NCI-H358
Procedure, shortened: as §1

201T = test system: 201T
Procedure, shortened: as §1

NCI-H596 = test system: NCI-H596
Procedure, shortened: as §1

EKVX = test system: EKVX
Procedure, shortened: as §1

HARA = test system: HARA
Procedure, shortened: as §1

SK-MES-1 = test system: SK-MES-1
Procedure, shortened: as §1

BEN = test system: BEN
Procedure, shortened: as §1

A-427 = test system: A-427
Procedure, shortened: as §1

NCI-H1437 = test system: NCI-H1437
Procedure, shortened: as §1

NCI-H650 = test system: NCI-H650
Procedure, shortened: as §1

HCC-15 = test system: HCC-15
Procedure, shortened: as §1

LK-2 = test system: LK-2
Procedure, shortened: as §1

COR-L23 = test system: COR-L23
Procedure, shortened: as §1

COR-L 105 = test system: COR-L 105
Procedure, shortened: as §1

O=C(O)c1ccc(-c2c[nH]c3ncc(-c4ccccc4)cc23)cc1C1CCCC1 + Cc1nc(NC(=O)N2CCC[C@H]2C(N)=O)sc1-c1ccnc(C(C)(C)C(F)(F)F)c1 [Alpelisib] (partner 2 µM)
relative viability (NCI-H1666; first compound 0.04 µM): 0.965
relative viability (NCI-H1666; first compound 0.1265 µM): 0.897
relative viability (NCI-H1666; first compound 0.4 µM): 0.892
relative viability (NCI-H1666; first compound 1.265 µM): 0.367
relative viability (NCI-H23; first compound 0.04 µM): 0.61
relative viability (NCI-H23; first compound 0.1265 µM): 0.852
relative viability (NCI-H23; first compound 0.4 µM): 0.672
relative viability (NCI-H23; first compound 1.265 µM): 0.423
relative viability (NCI-H1792; first compound 0.04 µM): 0.681
relative viability (NCI-H1792; first compound 0.1265 µM): 0.9
relative viability (NCI-H1792; first compound 0.4 µM): 0.688
relative viability (NCI-H1792; first compound 1.265 µM): 0.66
relative viability (NCI-H838; first compound 0.04 µM): 1.08
relative viability (NCI-H838; first compound 0.1265 µM): 1.13
relative viability (NCI-H838; first compound 0.4 µM): 1.11
relative viability (NCI-H838; first compound 1.265 µM): 1.02
relative viability (NCI-H441; first compound 0.04 µM): 0.707
relative viability (NCI-H441; first compound 0.1265 µM): 0.692
relative viability (NCI-H441; first compound 0.4 µM): 0.759
relative viability (NCI-H441; first compound 1.265 µM): 0.382
relative viability (HCC-44; first compound 0.04 µM): 0.889
relative viability (HCC-44; first compound 0.1265 µM): 0.813
relative viability (HCC-44; first compound 0.4 µM): 0.848
relative viability (HCC-44; first compound 1.265 µM): 0.477
relative viability (NCI-H1975; first compound 0.04 µM): 0.633
relative viability (NCI-H1975; first compound 0.1265 µM): 0.817
relative viability (NCI-H1975; first compound 0.4 µM): 0.652
relative viability (NCI-H1975; first compound 1.265 µM): 0.578
relative viability (HCC-827; first compound 0.04 µM): 0.847
relative viability (HCC-827; first compound 0.1265 µM): 0.988
relative viability (HCC-827; first compound 0.4 µM): 0.89
relative viability (HCC-827; first compound 1.265 µM): 0.747
relative viability (NCI-H358; first compound 0.04 µM): 0.767
relative viability (NCI-H358; first compound 0.1265 µM): 0.904
relative viability (NCI-H358; first compound 0.4 µM): 0.708
relative viability (NCI-H358; first compound 1.265 µM): 0.381
relative viability (201T; first compound 0.04 µM): 1.01
relative viability (201T; first compound 0.1265 µM): 1
relative viability (201T; first compound 0.4 µM): 0.993
relative viability (201T; first compound 1.265 µM): 0.935
relative viability (NCI-H596; first compound 0.04 µM): 0.492
relative viability (NCI-H596; first compound 0.1265 µM): 0.427
relative viability (NCI-H596; first compound 0.4 µM): 0.484
relative viability (NCI-H596; first compound 1.265 µM): 0.402
relative viability (EKVX; first compound 0.04 µM): 0.984
relative viability (EKVX; first compound 0.1265 µM): 0.966
relative viability (EKVX; first compound 0.4 µM): 0.911
relative viability (EKVX; first compound 1.265 µM): 0.812
relative viability (HARA; first compound 0.04 µM): 0.775
relative viability (HARA; first compound 0.1265 µM): 0.988
relative viability (HARA; first compound 0.4 µM): 0.812
relative viability (HARA; first compound 1.265 µM): 0.707
relative viability (SK-MES-1; first compound 0.04 µM): 0.83
relative viability (SK-MES-1; first compound 0.1265 µM): 1.01
relative viability (SK-MES-1; first compound 0.4 µM): 0.834
relative viability (SK-MES-1; first compound 1.265 µM): 0.803
relative viability (BEN; first compound 0.04 µM): 1.28
relative viability (BEN; first compound 0.1265 µM): 1.07
relative viability (BEN; first compound 0.4 µM): 1.01
relative viability (BEN; first compound 1.265 µM): 0.913
relative viability (A-427; first compound 0.04 µM): 1.03
relative viability (A-427; first compound 0.1265 µM): 1.13
relative viability (A-427; first compound 0.4 µM): 1.06
relative viability (A-427; first compound 1.265 µM): 0.93
relative viability (NCI-H1437; first compound 0.04 µM): 0.998
relative viability (NCI-H1437; first compound 0.1265 µM): 0.951
relative viability (NCI-H1437; first compound 0.4 µM): 0.914
relative viability (NCI-H1437; first compound 1.265 µM): 0.882
relative viability (NCI-H650; first compound 0.04 µM): 1.19
relative viability (NCI-H650; first compound 0.1265 µM): 1.13
relative viability (NCI-H650; first compound 0.4 µM): 0.928
relative viability (NCI-H650; first compound 1.265 µM): 0.737
relative viability (HCC-15; first compound 0.04 µM): 0.956
relative viability (HCC-15; first compound 0.1265 µM): 0.837
relative viability (HCC-15; first compound 0.4 µM): 0.849
relative viability (HCC-15; first compound 1.265 µM): 0.49
relative viability (LK-2; first compound 0.04 µM): 1.23
relative viability (LK-2; first compound 0.1265 µM): 0.612
relative viability (LK-2; first compound 0.4 µM): 1.19
relative viability (LK-2; first compound 1.265 µM): 1.08
relative viability (COR-L23; first compound 0.04 µM): 0.79
relative viability (COR-L23; first compound 0.1265 µM): 0.745
relative viability (COR-L23; first compound 0.4 µM): 0.742
relative viability (COR-L23; first compound 1.265 µM): 0.61
relative viability (COR-L 105; first compound 0.04 µM): 0.893
relative viability (COR-L 105; first compound 0.1265 µM): 1.02
relative viability (COR-L 105; first compound 0.4 µM): 1.04
relative viability (COR-L 105; first compound 1.265 µM): 0.79

From the supplement of paper PMC10307832
